Values of other authors, collected in patent US20240009323A1, “METHODS OF TREATING COLON CANCER USING NANOPARTICLE MTOR INHIBITOR COMBINATION THERAPY” (Abraxis BioScience, LLC, priority 2017, published 2024).

Assays:
[1] = in vivo

For `COc1ccc(COc2cc3oc(=O)c4cc(C(C)O)ccc4c3cc2OC)cc1` (centres unmarked) [Palomid 529], the “affinity for ABCB1/ABCG2” value (ABCB1/ABCG2) is given as “lacks affinity” and the brain penetration [1] is given as “good brain penetration”.
